Measurements as given in ChEMBL document CHEMBL3621142, “Discovery and Evaluation of Clinical Candidate AZD3759, a Potent, Oral Active, Central Nervous System-Penetrant, Epidermal Growth Factor Receptor Tyrosine Kinase Inhibitor” (J Med Chem, 2015).
The source made the active and inactive calls. The rule behind the calls is not given here.

Experiments:
PC-9 [1] = test: Antitumor activity against human PC9 cells expressing EGFR exon19 deletion mutant xenografted in mouse at 15 mg/kg, qd measured after 4 weeks; type: functional, organism-based
BCRP [2] = test: in vitro; settings: dog
Description: Efflux ratio of permeability from basolateral to apical side over apical to basolateral side in BCRP transfected MDCK2 cells

[3] = Fraction unbound in Han Wistar rat blood at 5 uM by equilibrium dialysis method; type: ADME, tissue-based; settings: Han Wistar
Mus musculus = test: Toxicity in PC9 cells expressing EGFR exon19 deletion mutant xenografted mouse assessed as loss of body weight at 15 mg/kg, qd; type: organism-based, PC-9; settings: in vivo
[4] = Ratio of unbound AUC (0 to 24 hrs) in brain to blood of Han Wistar rat at 20 mg/kg, po by LC-MS/MS analysis; type: ADME, organism-based; settings: brain and blood, read-out: K(p,uu,brain)
[5] = Ratio of unbound AUC (0 to 24 hrs) in CSF to blood of Han Wistar rat at 20 mg/kg, po by LC-MS/MS analysis; type: ADME, organism-based; settings: CSF and blood
[6] = Permeability from apical to basolateral side in MDCK2-MDR1 cells; type: ADME, cell-based, Canis lupus familiaris, MDCK-II; settings: dog, MDCK-MDR1
MDR1 (P-gp) = test: Efflux ratio of permeability from basolateral to apical side over apical to basolateral side in MDCK2-MDR1 cells; type: ADME, cell-based, Canis lupus familiaris; settings: dog, MDCK-MDR1
PC-9 [7] = test: Antitumor activity against human PC9 cells expressing EGFR exon19 deletion mutant xenografted in mouse assessed as tumor regression at 15 mg/kg, qd measured after 4 weeks; type: functional, organism-based
BCRP [8] = test: Permeability from apical to basolateral side in BCRP transfected MDCK2 cells; type: ADME, cell-based, Canis lupus familiaris, MDCK-II; settings: dog
[9] = Fraction unbound in Han Wistar rat brain at 5 uM by equilibrium dialysis method; type: ADME, tissue-based; settings: Han Wistar, brain
[10] = Ratio of unbound AUC (0 to 7 hrs) in brain to blood of Han Wistar rat at 2 mg/kg, po by LC-MS/MS analysis; type: ADME, organism-based; settings: Han Wistar, brain and blood, read-out: K(p,uu,brain)
[11] = molecular target: Epidermal growth factor receptor (Homo sapiens, UniProt P00533, L858R); type: cell-based, H3255
Sequence of Epidermal growth factor receptor (P00533 25-1210 L858R limits assumed): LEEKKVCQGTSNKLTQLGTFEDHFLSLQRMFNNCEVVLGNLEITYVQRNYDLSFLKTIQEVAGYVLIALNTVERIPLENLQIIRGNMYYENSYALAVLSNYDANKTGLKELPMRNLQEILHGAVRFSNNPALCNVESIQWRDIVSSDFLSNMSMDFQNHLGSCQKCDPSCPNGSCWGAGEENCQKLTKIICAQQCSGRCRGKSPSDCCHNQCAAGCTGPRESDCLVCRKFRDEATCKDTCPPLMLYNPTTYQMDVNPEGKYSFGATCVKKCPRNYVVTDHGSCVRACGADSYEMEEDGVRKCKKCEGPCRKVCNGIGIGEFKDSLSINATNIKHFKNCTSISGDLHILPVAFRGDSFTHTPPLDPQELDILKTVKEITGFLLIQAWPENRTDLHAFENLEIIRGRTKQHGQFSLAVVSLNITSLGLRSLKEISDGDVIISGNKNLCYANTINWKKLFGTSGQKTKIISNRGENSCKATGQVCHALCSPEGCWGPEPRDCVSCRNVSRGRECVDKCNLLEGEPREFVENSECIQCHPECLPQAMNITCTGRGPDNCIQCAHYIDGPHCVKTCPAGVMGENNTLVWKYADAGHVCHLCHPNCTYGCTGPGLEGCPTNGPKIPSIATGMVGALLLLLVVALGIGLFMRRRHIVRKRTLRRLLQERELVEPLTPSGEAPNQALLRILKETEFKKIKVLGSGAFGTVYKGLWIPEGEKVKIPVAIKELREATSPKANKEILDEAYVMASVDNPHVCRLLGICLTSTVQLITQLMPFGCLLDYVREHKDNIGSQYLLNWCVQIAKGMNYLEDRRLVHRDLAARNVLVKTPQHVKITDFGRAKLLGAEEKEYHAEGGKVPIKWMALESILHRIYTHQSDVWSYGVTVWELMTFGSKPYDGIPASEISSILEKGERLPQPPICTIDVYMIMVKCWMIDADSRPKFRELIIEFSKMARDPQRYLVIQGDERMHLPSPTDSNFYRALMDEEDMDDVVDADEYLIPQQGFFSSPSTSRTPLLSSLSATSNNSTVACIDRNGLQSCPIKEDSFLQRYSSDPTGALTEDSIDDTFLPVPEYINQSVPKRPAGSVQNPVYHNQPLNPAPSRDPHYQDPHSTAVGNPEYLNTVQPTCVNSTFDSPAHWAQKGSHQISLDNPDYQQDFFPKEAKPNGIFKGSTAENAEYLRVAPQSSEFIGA

[12] = (§1) AUC (0 to 7 hrs) in Han Wistar rat CSF at 2 mg/kg, po by LC-MS/MS analysis; type: ADME, organism-based, Cerebrospinal fluid; set-up: time < 7 hr, dose 2 mg/kg, route oral; settings: Han Wistar, CSF
[13] = AUC (0 to 7 hrs) in Han Wistar rat brain at 2 mg/kg, po by LC-MS/MS analysis; type: ADME, organism-based; set-up: dose 2 mg/kg, time < 7 hr, route oral; settings: Han Wistar, brain
[14] = Ratio of unbound AUC (0 to 7 hrs) in CSF to blood of Han Wistar rat at 2 mg/kg, po by LC-MS/MS analysis; type: ADME, organism-based; settings: for Kp uu: Han Wistar, CSF and blood
[15] = AUC (0 to 7 hrs) in Han Wistar rat blood at 2 mg/kg, po by LC-MS/MS analysis; type: ADME, organism-based; set-up: dose 2 mg/kg, time < 7 hr, route oral; settings: Han Wistar, blood
[16] = Elimination half life in Han Wistar rat at 1 mg/kg, iv; type: ADME, organism-based; settings: Han Wistar, in vivo, read-out: beta t1/2 (converted)
[17] = Volume of distribution at steady state in Han Wistar rat at 1 mg/kg, iv; type: ADME, organism-based; settings: Han Wistar, in vivo, read-out: Vdss
[18] = AUC(0 to 24 hrs) in Han Wistar rat at 2 mg/kg, po; type: ADME, organism-based; set-up: dose 2 mg/kg, time < 24 hr, route oral; settings: Han Wistar, in vivo
[19] = (§2) Oral bioavailability in Han Wistar rat at 2 mg/kg; type: ADME, organism-based; settings: Han Wistar, in vivo
[20] = Clearance in Han Wistar rat at 1 mg/kg, iv; type: ADME, organism-based; settings: in vivo
Rattus norvegicus = test: as §2; type: ADME, organism-based; settings: in vivo
Cerebrospinal fluid = test: as §1; type: ADME, organism-based; set-up: time < 7 hr, dose 2 mg/kg, route oral; settings: in vivo, 7 h, BLD = below limit of detection
[21] = AUC (0 to 7 hrs) in Han Wistar rat CSF at 20 mg/kg, po measured after 0.5 to 24 hrs by LC-MS/MS analysis; type: ADME, organism-based, Cerebrospinal fluid; set-up: time < 7 hr, dose 20 mg/kg, route oral
[22] = AUC (0 to 7 hrs) in Han Wistar rat blood at 20 mg/kg, po measured after 0.5 to 24 hrs by LC-MS/MS analysis; type: ADME, organism-based; set-up: time < 7 hr, dose 20 mg/kg, route oral
[23] = AUC (0 to 7 hrs) in Han Wistar rat brain at 20 mg/kg, po measured after 0.5 to 24 hrs by LC-MS/MS analysis; type: ADME, organism-based; set-up: time < 7 hr, dose 20 mg/kg, route oral

| SMILES | fraction unbound at 5 µM [3] | Papp A→B [6] [×10⁻⁶ cm/s] | efflux ratio (MDR1 (P-gp)) | fraction unbound at 5 µM [9] | Kp uu [10] | IC50 [11] [nM] | AUC(0-t) at 7 h [12] [µM·h] | AUC(0-t) at 7 h [13] [µM·h] | Kp uu [14] | AUC(0-t) at 7 h [15] [µM·h] | further results |
| --- | --- | --- | --- | --- | --- | --- | --- | --- | --- | --- | --- |
| C#Cc1cccc(Nc2ncnc3cc(OCCOC)c(OCCOC)cc23)c1 [ERLOTINIB] | 0.045 | 19 | 1.7 | 0.029 |  |  |  |  |  |  | Activity (PC-9 [1]): Active; efflux ratio (BCRP [2]): 5.4; Activity (Mus musculus): Toxic; Kp uu [4]: 0.11; Kp uu [5]: 0.29; Activity (PC-9 [7]): Active; Papp A→B (BCRP [8]): 14 ×10⁻⁶ cm/s |
| COc1cc2ncnc(Nc3cccc(Cl)c3F)c2cc1OC(=O)N1CC[C@@H](N(C)C)C1 | 0.058 | 47 | 0.76 | 0.023 | 0.27 | 1.1 | 0.075 | 2.04 | 0.43 | 3 |  |
| COc1cc2ncnc(Nc3cccc(Cl)c3F)c2cc1N1CCOCC1 | 0.058 | 32 | 0.29 | 0.022 | 0.96 | 1.5 | 0.002 | 0.085 | 0.93 | 0.033 |  |
| COc1cc2ncnc(Nc3cccc(Cl)c3F)c2cc1OC(=O)N1CCN(C)[C@@H](C)C1 | 0.035 | 59 | 1.5 | 0.016 | 0.84 | 16.9 | 0.019 | 0.278 | 3.5 | 0.157 | half-life [16]: 1.1 h; Vd [17]: 1.9 L/kg; AUC(0-t) at 24 h [18]: 0.789 µM·h; bioavailability [19]: 24%; clearance [20]: 26 mL/min/kg |
| COc1cc2ncnc(Nc3cccc(Cl)c3F)c2cc1OC(=O)N1CCN(C)C[C@@H]1C | 0.023 | 51 |  | 0.015 | 1.6 |  | 0.048 | 1.94 | 2.6 | 0.805 | half-life [16]: 2.4 h; Vd [17]: 2.7 L/kg; AUC(0-t) at 24 h [18]: 2.95 µM·h; bioavailability [19]: 83%; clearance [20]: 29 mL/min/kg |
| COc1cc2ncnc(Nc3cccc(Cl)c3F)c2cc1OC(=O)N1CCN(C)C2CC21 (stereo in doubt; 1i) | 0.028 | 67 |  | 0.019 | 0.51 |  | 0.019 | 0.585 | 0.9 | 0.786 | half-life [16]: 0.9 h; Vd [17]: 2 L/kg; AUC(0-t) at 24 h [18]: 1.57 µM·h; F (Rattus norvegicus): 52%; clearance [20]: 28 mL/min/kg |
| COc1cc2ncnc(Nc3cccc(Cl)c3F)c2cc1C(=O)N1CCOCC1 | 0.17 | 28 | 2.9 | 0.088 | 0.03 | 166 | 0.046 | 0.101 | 0.16 | 1.63 |  |
| COc1cc2ncnc(Nc3cccc(Cl)c3F)c2cc1OC(=O)N1C[C@@H]2C[C@H]1CN2C | 0.134 | 14 | 0.39 | 0.016 | 0.086 | 2.3 |  | 0.332 |  | 0.454 | AUC (Cerebrospinal fluid): BLD; K(p,uu,CSF) ([14]; csf, BLD = below limit of detection): BLD |
| COc1cc2ncnc(Nc3ccc(F)c(Cl)c3)c2cc1OCCCN1CCOCC1 [GEFITINIB] |  | 8.3 |  | 0.0039 |  |  |  |  |  |  | AUC(0-t) at 7 h [21]: 0.093 µM·h; AUC(0-t) at 7 h [22]: 31.9 µM·h; Kp uu [4]: 0.021; AUC(0-t) at 7 h [23]: 5.65 µM·h; Kp uu [5]: 0.088; Papp A→B (BCRP [8]): 4.2 ×10⁻⁶ cm/s |
| COc1cc2ncnc(Nc3cccc(Cl)c3F)c2cc1OC(=O)N1CCOCC1 | 0.038 | 42 | 0.58 | 0.026 | 1.7 | 4.1 | 0.005 | 0.104 | 3.4 | 0.042 |  |
| COc1cc2ncnc(Nc3cccc(Cl)c3F)c2cc1OC(=O)N1CC[C@H](N(C)C)C1 | 0.049 | 17 | 0.34 | 0.024 | 0.15 | 2.7 | 0.068 | 0.798 | 0.56 | 2.48 |  |
| CN(C)C/C=C/C(=O)Nc1cc2c(Nc3ccc(F)c(Cl)c3)ncnc2cc1O[C@H]1CCOC1 [AFATINIB] | 0.041 | 2.5 | 11 | 0.0054 |  |  |  |  |  |  | efflux ratio (BCRP [2]): 59; Kp uu [4]: 0.0066; Kp uu [5]: 0.27; Papp A→B (BCRP [8]): 1.3 ×10⁻⁶ cm/s |
| COc1cc2ncnc(Nc3cccc(Cl)c3F)c2cc1OC(=O)N1CCN(C)[C@H](C)C1 | 0.064 | 54 | 0.94 | 0.018 | 0.28 | 21.5 | 0.007 | 0.417 | 0.28 | 0.404 | half-life [16]: 1.3 h; Vd [17]: 3.2 L/kg; AUC(0-t) at 24 h [18]: 1.04 µM·h; bioavailability [19]: 92%; clearance [20]: 55 mL/min/kg |
| COc1cc2ncnc(Nc3ccc(F)c(Cl)c3)c2cc1N1CCOCC1 | 0.022 | 29 | 0.18 | 0.0083 | 0.42 | 1.5 | 0.001 | 0.085 | 0.79 | 0.077 |  |
